Measurements as given in US20210069194A1, “COMBINATION THERAPY FOR THE TREATMENT OF CANCER” (MingSight Pharmaceuticals, Inc., priority 2018, published 2021).

Assays:
Human PKC delta = Human PKC delta (Homo sapiens, UniProt Q05655); assay: PKC isoform inhibition in vitro assay, PKC delta; format: biochemical
[1] = system: IL-6 production in TMD8 cells; assay: IL-6 assay (ELISA) in TMD8 cells; format: cell-based, Human; details: for Inhibition of IL-6 production: TMD8 cells (activating CD79 mutation), 48 hours
Protocol: (§1) TMD8 cells were grown in MEM media supplemented with 10% fetal calf serum (FCS), non-essential vitamin mix, and penicillin-streptomycin antibiotics (pen-strep). HBL1 cells were grown in RPMI-1640 media supplemented with 10% FCS and pen-strep. OCI-Ly3 cells were grown in DMEM media with 15% FCS, non-essential vitamin mix, pen-strep, and 25 mM HEPES buffer. Cells were maintained in suspension culture, fed twice weekly, and split 1:3 approximately every two weeks (TMD8, OCI-Ly3) or weekly (HBL1).
(§2) Cells were harvested via centrifugation and resuspended twice to rinse the media of any IL-6. Cells were then plated in 96 well plates at 5×10^5 cells per well and exposed to increasing concentrations of Compound A, sotrastaurin, or media containing 0.1% DMSO (negative control). For each cell type, experiments were performed in the media used for growth and maintenance. Cells were allowed to grow for 48 hours after plating in the presence of inhibitors. Following compound exposure, cells were pelleted in the 96 well plate, supernatant was removed, and the concentration of IL-6 in the supernatant was determined using R&D Systems Haman IL-6 Quantikine® ELISA Kit (D6050) according to manufacturer's instructions.

[2] = system: IL-6 production in HBL1 cells; assay: IL-6 assay (ELISA) in HBL1 cells; format: cell-based, Human; details: HBL1 cells (activating CD79 mutation), 48 hours, data not shown
[3] = system: IL-6 production in OCI-Ly3 cells; assay: IL-6 assay (ELISA) in OCI-Ly3 cells; format: cell-based, Human; details: OCI-Ly3 cells (no activating CD79 mutation), 48 hours
Protocol: as §1, §2

TMD8 cells [4] = assay: Cell proliferation and survival assay (MTT), TMD8; format: cell-based, Human; details: for Inhibition of cell proliferation and survival: TMD8 cells, MTT, 96 hours
Protocol: (§3) TMD8 cells were grown in MEM media supplemented with 10% fetal calf serum (FCS), non-essential vitamin mix, and penicillin-streptomycin antibiotics (pen-strep). HBL1 cells were grown in RPMI-1640 media supplemented with 10% FCS and pen-strep. OCI-Ly3 cells were grown in DMEM media with 15% FCS, non-essential vitamin mix, pen-strep, and 25 mM HEPES buffer. Cells were maintained in suspension culture, fed twice weekly, and split 1:3 approximately every two weeks (TMD8, OCI-Ly3) or weekly (HBL1). Cells were cultured and maintained as described above, with cells always fed on the day prior to assay. Proliferation and survival of cells was quantified using an MTT assay kit according to manufacturer's instructions (Cell Proliferation Kit 1, Roche Diagnostics, Cat. No. 11 465 007 001). Experiments were performed in the same media used by each cell type for growth and maintenance. Cells (5×10^4) were plated in 96 well plates and allowed to grow for 96 hours in the presence of inhibitors. After the exposure period was completed, MTT reagent was added for 3-4 hours. The MTT solubilization reagent was then added to stop the reaction and cells were incubated overnight at 37° C. The plate read the next day according to the kit instructions.

HBL1 cells = assay: Cell proliferation and survival assay (MTT), HBL1; format: cell-based, Human; details: 96 hours, data not shown
OCI-Ly3 cells = assay: Cell proliferation and survival assay (MTT), OCI-Ly3; format: cell-based, Human; details: 96 hours
Protocol: as §3

TMD8 cells [5] = assay: TMD8 mouse xenograph model of DLBCL, tumor volume; format: in vivo, SCID mice; details: 120 mg/kg BID
Protocol: (§4) To test the efficacy of Compound A in vivo, TMD8 cells were grown and subcutaneously injected into SCID mice. Large scale suspension culture of TMD8 cells was performed in T250 flasks, where cells were expanded weekly. Animals (n=24) were inoculated with 10×10^6 cells (10×10^6 cells in 100 μL volume of 50% Matrigel®) subcutaneously in the animal's right flank.

[6] = TMD8 mouse xenograph model of DLBCL, body weight; format: in vivo, SCID mice; details: 120 mg/kg BID
Protocol: as §4

circulating lymphocytes = assay: Peripheral lymphocyte levels in healthy humans, multiple ascending dose study; format: in vivo, human; details: healthy humans, 50, 100, 150, 200 mg BID, 14 days
Protocol: Normal, healthy human patients received various doses of Compound A for 14 days of dosing. The dose levels were as follows: cohort 1: 50 mg, BID; cohort 2: 100 mg, BID; cohort 3, 150 mg, BID; and cohort 4,200 mg BID.

Sequence of Human PKC delta (Q05655 whole entry, canonical isoform): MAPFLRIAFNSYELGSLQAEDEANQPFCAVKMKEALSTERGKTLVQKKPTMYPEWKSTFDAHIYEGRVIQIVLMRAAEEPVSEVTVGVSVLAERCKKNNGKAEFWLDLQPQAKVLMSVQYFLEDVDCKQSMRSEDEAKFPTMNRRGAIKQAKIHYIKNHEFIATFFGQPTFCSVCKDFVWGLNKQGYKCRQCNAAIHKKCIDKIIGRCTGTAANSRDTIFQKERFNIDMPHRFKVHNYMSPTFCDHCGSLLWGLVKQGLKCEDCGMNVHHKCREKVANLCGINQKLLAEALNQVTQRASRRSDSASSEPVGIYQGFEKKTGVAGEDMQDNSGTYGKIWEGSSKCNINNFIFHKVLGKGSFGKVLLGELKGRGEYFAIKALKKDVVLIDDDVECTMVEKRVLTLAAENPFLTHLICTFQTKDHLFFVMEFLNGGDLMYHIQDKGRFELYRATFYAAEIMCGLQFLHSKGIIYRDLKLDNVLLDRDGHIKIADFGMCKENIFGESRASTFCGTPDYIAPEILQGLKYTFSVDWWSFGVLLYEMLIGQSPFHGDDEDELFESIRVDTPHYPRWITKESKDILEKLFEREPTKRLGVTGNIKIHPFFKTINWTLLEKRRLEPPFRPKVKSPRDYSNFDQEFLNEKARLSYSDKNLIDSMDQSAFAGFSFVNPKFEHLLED

Question: What does the source list for `Cc1ncc(F)c(Nc2n[nH]c3c2CN(C(=O)N2C[C@@H](C)N(CC4CCOCC4)C[C@@H]2C)C3(C)C)n1` [Compound A, 5-{[(2S,5R)-2,5-Dimethyl-4-(tetrahydro-2H-pyran-4-ylmethyl)piperazin-1-yl]carbonyl}-N-(5-fluoro-2-methylpyrimidin-4-yl)-6,6-dimethyl-1,4,5,6-tetrahydropyrrolo[3,4-c]pyrazol-3-amine]?
Answer: Inhibition of PKC delta (in words) (Human PKC delta): does not inhibit PKC delta to any appreciable degree; Potency compared to sotrastaurin, IL-6 assay [1]: slightly more potent; Inhibition of IL-6 production [1]: dose-dependent inhibition; Inhibition of IL-6 production [2]: dose-dependent inhibition; Inhibition of IL-6 production [3]: not affected; Potency compared to sotrastaurin, cell proliferation assay (TMD8 cells [4]): modestly more potent; Inhibition of cell proliferation and survival (TMD8 cells [4]): dose-dependent inhibition; Inhibition of cell proliferation and survival (HBL1 cells): dose-dependent inhibition; Inhibition of cell proliferation and survival (OCI-Ly3 cells): not affected by either compound except at the highest doses tested; Mean tumor volume (TMD8 cells [5]; study day 20): 898 mm^3; Mean tumor volume (TMD8 cells [5]; study day 28): 970 mm^3; Increase of mean tumor volume (TMD8 cells [5]; study days 20 to 28): 8%; Tumor growth (in words) (TMD8 cells [5]; study days 20 to 28): no appreciable amounts of tumor growth; Mean weight of vehicle treated group greater than Compound A treated animals by [6]: 1.8 g; Body weight change ([6]; day 24-28): no increase in body weight; Number of circulating lymphocytes (circulating lymphocytes): dose dependent increase

Question: Which “Inhibition of IL-6 production” value [1] does the source give for `CN1CCN(c2nc(C3=C(c4c[nH]c5ccccc45)C(=O)NC3=O)c3ccccc3n2)CC1` [sotrastaurin, reference compound] here?
Answer: The value was “dose dependent inhibition”.

Question: What about the “Inhibition of IL-6 production” value [3] of the same compound?
Answer: Its value is “not affected”.

Question: What about the “Inhibition of cell proliferation and survival” value (TMD8 cells [4]) of the same compound?
Answer: Its value is “dose dependent inhibition”.

Question: And the “Inhibition of cell proliferation and survival” value (OCI-Ly3 cells)?
Answer: The value was “not affected by either compound except at the highest doses tested”.
